{
  "source": "paper PMC6915745",
  "about": "“TRIB3 supports breast cancer stemness by suppressing FOXO1 degradation and enhancing SOX2 transcription” (Nature Communications, 2019)",
  "molecules": {"B1": {"name": "Tribbles homolog 3 (TRIB3), endogenous in human breast cancer cells (natural protein, UniProt Q96RU7 1-358, looked up)", "chain": "MRATPLAAPAGSLSRKKRLELDDNLDTERPVQKRARSGPQPRLPPCLLPLSPPTAPDRATAVATASRLGPYVLLEPEEGGRAYQALHCPTGTEYTCKVYPVQEALAVLEPYARLPPHKHVARPTEVLAGTQLLYAFFTRTHGDMHSLVRSRHRIPEPEAAVLFRQMATALAHCHQHGLVLRDLKLCRFVFADRERKKLVLENLEDSCVLTGPDDSLWDKHACPAYVGPEILSSRASYSGKAADVWSLGVALFTMLAGHYPFQDSEPVLLFGKIRRGAYALPAGLSAPARCLVRCLLRREPAERLTATGILLHPWLRQDPMPLAPTRSHLWEAAQVVPDGLGLDEAREEEGDREVVLYG"}, "B2": {"name": "TRIB3-GST protein: TRIB3-GST protein (Sino, China) (protein)", "chain": "B1 chain", "modifications": "left off: GST, end not stated, kept"}},
  "key": {"[1]": {"system": "TRIB3-silenced MCF7 cells", "assay": "Immunoblot of AKT1/FOXO1/SOX2, TRIB3-silenced MCF7 cells with AKT1 inhibitor MK2206", "format": "cell-based, human", "conditions": "TRIB3-silenced MCF7 cells, 24 h", "description": "Fig. 6 TRIB3 abrogates the AKT-FOXO1 interaction. a Supervised clustering of MCF7 cells transfected with CTRL-shRNA or TRIB3-shRNA using the log2-transformed values for genes in the FOXO1 upstream pathway, including AMPK, ERK, PI3K, p38, and JNK clustered genes expressed in all samples. Each column represents a separate case. Z-scores from IPA depicting the subnetwork gene expression differences between CTRL-shRNA and TRIB3-shRNA cases. The Z-score heat map depicts the five FOXO1 upstream subnetworks. Each row represents the data for the subnetwork indicated in the right margin. b, c TRIB3 inhibited the activity of AKT1 in BCCs. The indicated stable expression cell extracts were prepared and the levels of the indicated proteins were detected by immunoblotting. d, e The effects of the AKT1 agonist or antagonist for TRIB3-FOXO1-SOX2 axis in BCCs. The indicated cells were treated with the AKT1 agonist SC79 or the antagonist MK2206 for 24 h. […] HMLE cell extracts were IP with an anti-AKT1 Ab and blotted with an anti-TRIB3 or anti-FOXO1 Ab in the presence of the indicated concentration of the TRIB3-GST protein. Data are shown as the mean ± SEM; P > 0.05 was considered not significant (NS); *P < 0.05, **P < 0.01, and ***P < 0.001 compared with the vector or CTRL-shRNA group. Source data are provided as a Source Data file.\n(§1) Cycloheximide (CHX; Sigma Aldrich, R750107) was used as a protein synthesis inhibitor to assess the stability of the existing proteins. To assess protein stability, cells were treated with 20 μM CHX and the proteasome inhibitor MG132 (Sigma Aldrich, R750107) at 10 μM or the autophagy inhibitor BAF (Sigma Aldrich, B1793) at 200 nM for the indicated times. Protein expression was assessed via immunoblot analysis with cell lysates (20–60 μg) prepared in RIPA lysis buffer containing protease inhibitors (Roche) using anti-SOX2 (3529), anti-NANOG (4903), anti-OCT4 (2750), anti-KLF4 (4038), anti-c-Myc (13987), anti-FOXO1 (2880), anti-p-FOXO1 (9461), anti-AKT (4685), anti-p-AKT (4060), anti-β-ACTIN (4970), anti-Ubiquitin (3936), or anti-LaminA/C (4777) antibodies from CST; anti-TRIB3 antibody (ab75846) from Abcam; and anti-Trib3 antibody (PA5-15480) from Thermo Fisher Scientific[59]. All antibodies were used at 1:1000 dilution, with the exception of anti-β-Actin antibodies, which were used at 1:2000 dilution. The protein concentrations were determined by BCA Protein Assay Kits (Pierce). Proteins were separated by SDS-polyacrylamide gel electrophoresis (PAGE) and transferred to polyvinylidene difluoride membrane."}, "[2]": {"system": "TRIB3-silenced MDA-MB-231 cells", "assay": "Immunoblot of AKT1/FOXO1/SOX2, TRIB3-silenced MDA-MB-231 cells with AKT1 inhibitor MK2206", "format": "cell-based", "conditions": "24 hr", "procedure": "as §1, with “Proteins were separated by SDS-polyacrylamide gel electrophoresis (PAGE) and transferred to polyvinylidene difluoride membrane.” left out\nindicated proteins were detected by immunoblotting. […]\nMK2206 for 24 hr. Cell extracts were prepared and the levels of the indicated proteins were detected […]\nlevels of the indicated proteins were detected by immunoblotting. […]\nglucose (HG) for 24 hr was detected by Western blotting. […]"}, "[3]": {"biological_target": "T1, TRIB3-GST protein (Homo sapiens, UniProt Q96RU7)", "T1 construct": "purchased Sino, China", "T1 sequence (Q96RU7 1-358)": "B1 chain", "assay": "SPR binding kinetics of peptides to TRIB3 (BIAcore T200)", "conditions": "in words", "procedure": "Peptide Ae, alanine mutants of Ae (M1-M13), Pep2–con and Pep2–Ae were synthesized by Guoping Pharmaceutical, Co. (China). The Surface plasmon resonance binding kinetics between TRIB3 and the indicated peptides were analyzed by using a BIAcore T200 system (GE Healthcare)[14]. Briefly, TRIB3-GST protein (Sino, China) was immobilized onto four individual flow cells in a CM5 sensor chip (GE Healthcare) through a standard coupling protocol. To measure the binding kinetics, the indicated peptide (2.5~0.009 μM in 2-fold serial dilutions) and a buffer blank for baseline subtraction were sequentially injected, with a regeneration step (glycine, pH 2.5) inserted between each cycle. The equilibrium dissociation constant (KD) was calculated according to BIA-evaluation software."}, "[4]": {"system": "FOXO1", "conditions": "HEPG2 cells, after insulin activation of PI3K-AKT; 12-hr under sera deprivation; ref Matsuzaki et al. (2003, PNAS); cited from earlier work"}, "[5]": {"biological_target": "AKT1, endogenous in human cells (human (endogenous in HMLE, MCF7, …, UniProt P31749 1-480))", "sequence (P31749 whole entry)": "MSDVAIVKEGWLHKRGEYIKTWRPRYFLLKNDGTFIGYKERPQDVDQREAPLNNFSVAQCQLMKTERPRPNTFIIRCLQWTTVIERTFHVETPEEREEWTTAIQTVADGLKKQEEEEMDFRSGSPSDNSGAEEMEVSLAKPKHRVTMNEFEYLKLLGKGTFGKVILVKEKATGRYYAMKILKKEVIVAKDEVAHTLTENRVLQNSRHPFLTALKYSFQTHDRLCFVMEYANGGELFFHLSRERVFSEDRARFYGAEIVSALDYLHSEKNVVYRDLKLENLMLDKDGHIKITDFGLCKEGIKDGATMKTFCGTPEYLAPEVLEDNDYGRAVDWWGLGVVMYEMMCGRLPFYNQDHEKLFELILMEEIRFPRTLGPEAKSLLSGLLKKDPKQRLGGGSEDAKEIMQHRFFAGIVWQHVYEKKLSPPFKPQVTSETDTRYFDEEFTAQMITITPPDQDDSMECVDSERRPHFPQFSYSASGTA", "assay": "cell-based or functional assay"}, "[6]": {"system": "AKT1-FOXO1 interaction", "assay": "Co-IP of AKT1-FOXO1 interaction in HMLE cell extracts with TRIB3-GST protein", "format": "binding, human", "conditions": "IP anti-AKT1", "description": "Fig. 6 TRIB3 abrogates the AKT-FOXO1 interaction. a Supervised clustering of MCF7 cells transfected with CTRL-shRNA or TRIB3-shRNA using the log2-transformed values for genes in the FOXO1 upstream pathway, including AMPK, ERK, PI3K, p38, and JNK clustered genes expressed in all samples. Each column represents a separate case. Z-scores from IPA depicting the subnetwork gene expression differences between CTRL-shRNA and TRIB3-shRNA cases. The Z-score heat map depicts the five FOXO1 upstream subnetworks. Each row represents the data for the subnetwork indicated in the right margin. b, c TRIB3 inhibited the activity of AKT1 in BCCs. The indicated stable expression cell extracts were prepared and the levels of the indicated proteins were detected by immunoblotting. d, e The effects of the AKT1 agonist or antagonist for TRIB3-FOXO1-SOX2 axis in BCCs. The indicated cells were treated with the AKT1 agonist SC79 or the antagonist MK2206 for 24 h. […]\nCell pellets were lysed with coimmunoprecipitation buffer (25 mM Tri-cl (pH 7.4), 150 mM NaCl, 0.5% NP-40, 2.5 mM MgCl, 0.5 mM EDTA, 5% Glycerol), incubated with IP antibodies overnight at 4 °C with shaking, and then incubated with Protein A/G Plus-Agarose (Santa Cruz Biotechnology) for 2 h at 4 °C[15]. Interaction complexes were separated from the beads by boiling for 10 min and then subjected to SDS-PAGE and detected with immunoblotting."}},
  "data": [
    {"molecule": "NC1(c2ccc(-c3nc4ccn5c(=O)[nH]nc5c4cc3-c3ccccc3)cc2)CCC1", "note": "[MK2206, reference compound]", "values": [
      {"measurement": "FOXO1 and SOX2 expression", "setting": "[1]", "result": "rescued FOXO1 and SOX2 expression"},
      {"measurement": "activity of AKT1 S473 and FOXO1 S256", "setting": "[1]", "result": "suppressed the activity of AKT1^S473 and FOXO1^S256"},
      {"measurement": "FOXO1 and SOX2 expression", "setting": "[2]", "result": "rescued FOXO1 and SOX2 expression"},
      {"measurement": "activity of AKT1 S473 and FOXO1 S256", "setting": "[2]", "result": "suppressed the activity of AKT1^S473 and FOXO1^S256"}
    ]},
    {"molecule": "AAHTAAENRV AAA [Pep2–con, reference compound]", "values": [
      {"measurement": "interaction with TRIB3 of control peptide", "setting": "[3]; authors' reply to reviewers", "result": "no interaction with TRIB3"}
    ]},
    {"molecule": "Ae: α-helical peptide which mimics the AKT1 191–204 α-helical region (EVAHTLTENRVLQN; UniProt P31749 191-204, looked up, fragment)", "values": [
      {"measurement": "binding affinity with TRIB3, rank among α-helical peptides", "setting": "[3]; SPR, series of α-helical peptides of AKT1 catalytic domain", "result": "displayed the best binding affinity with TRIB3 among all the α-helical peptides analyzed"}
    ]},
    {"molecule": "insulin: insulin activation of the PI3K-AKT signaling pathway", "values": [
      {"measurement": "FOXO1 half-life", "setting": "[4]", "result": "approximately 6 hr"}
    ]},
    {"molecule": "B1", "values": [
      {"measurement": "half-life of FOXO1 degradation in MCF7 cells treated with Pep2–Ae (Supplementary Fig. 10d)", "setting": "[5]", "result": 36, "unit": "min"}
    ]},
    {"molecule": "B2", "values": [
      {"measurement": "AKT1-FOXO1 interaction", "setting": "[6]", "result": "inhibited the AKT1-FOXO1 interaction by binding to AKT1"}
    ]}
  ]
}
